ChEMBL document CHEMBL1255477, “In vitro properties of BAL30072, a novel siderophore sulfactam with activity against multiresistant gram-negative bacilli” (Antimicrob Agents Chemother, 2010)
≈ marks a conversion by molar mass, not a printed value. Calls of active or inactive are those of the source. The rule behind the calls is not given here.

Experiments:
Enterobacter cloacae [1] = test: Microbicidal activity against Enterobacter cloacae S4741B selected after 4 times MIC compound exposure; format: functional
Pseudomonas aeruginosa [2] = test: Antimicrobial activity against Pseudomonas aeruginosa 621 assessed as number of passages required for MIC to rise above 4 times original MIC; format: functional
Acinetobacter baumannii [3] = test: Antimicrobial activity against Acinetobacter baumannii HPA74510 assessed as appearance of colony at 4 times MIC concentration; format: functional, organism-based
Escherichia coli [4] = test: Antimicrobial activity against Escherichia coli Libyien harboring beta-lactamase CMY-2 by broth dilution method; format: functional
Pseudomonas aeruginosa [5] = test: Antimicrobial activity against Pseudomonas aeruginosa 621 assessed as appearance of colony at 4 times MIC concentration; format: functional
Klebsiella pneumoniae [6] = test: Antimicrobial activity against Klebsiella pneumoniae 1357E harboring beta-lactamase TEM-10 by broth dilution method; format: functional
Proteus penneri = test: Antimicrobial activity against Proteus penneri by broth dilution method; format: functional
Pseudomonas aeruginosa [7] = test: microbe, parasite or virus in culture; details: PAO1
Description: Antimicrobial activity against Pseudomonas aeruginosa PAO1 by broth dilution method

Escherichia coli [8] = test: Antimicrobial activity against Escherichia coli W3110 assessed as appearance of colony at 4 times MIC concentration; format: functional, organism-based
Pseudomonas aeruginosa [9] = test: Antimicrobial activity against Pseudomonas aeruginosa HPA10586 harboring beta-lactamase VIM-1 by broth dilution method; format: functional
Acinetobacter sp. = test: Antimicrobial activity against Acinetobacter sp. by broth dilution method; format: functional
Pseudomonas aeruginosa [10] = test: Antimicrobial activity against Pseudomonas aeruginosa BA(C1-106) selected after 25 ug/ml of compound exposure by broth dilution method; format: functional
Klebsiella pneumoniae [11] = test: Antimicrobial activity against Klebsiella pneumoniae 26768WU harboring beta-lactamase SHV-5 by broth dilution method; format: functional
Pseudomonas aeruginosa [12] = test: microbe, parasite or virus in culture; details: 18S/H
Description: Antimicrobial activity against Pseudomonas aeruginosa 18S/H harboring beta-lactamase Class C by broth dilution method

Acinetobacter baumannii [13] = test: Antimicrobial activity against Acinetobacter baumannii HPA 327009 harboring beta-lactamase OXA-25 by broth dilution method; format: functional
Pseudomonas aeruginosa [14] = test: Antimicrobial activity against Pseudomonas aeruginosa HPA996 harboring beta-lactamase VIM-2 by broth dilution method; format: functional
Pseudomonas aeruginosa [15] = test: Antimicrobial activity against Pseudomonas aeruginosa BA(C2-107) selected after 25 ug/ml of compound exposure by broth dilution method; format: functional
Klebsiella pneumoniae [16] = test: Antimicrobial activity against Klebsiella pneumoniae 1338665 assessed as number of passages required for MIC to rise above 4 times original MIC; format: functional
Pseudomonas aeruginosa [17] = test: Antimicrobial activity against Pseudomonas aeruginosa 860 assessed as appearance of colony at 4 times MIC concentration; format: functional
Klebsiella pneumoniae [18] = test: Antimicrobial activity against Klebsiella pneumoniae CRE harboring beta-lactamase KPC-2 by broth dilution method; format: functional
Escherichia coli [19] = test: Antimicrobial activity against Escherichia coli by broth dilution method; format: functional
Pseudomonas aeruginosa [20] = test: microbe, parasite or virus in culture; details: BA
Description: Antimicrobial activity against Pseudomonas aeruginosa BA harboring beta-lactamase Class C by broth dilution method

Pseudomonas aeruginosa [21] = test: Antimicrobial activity against Pseudomonas aeruginosa HPA101-1477 harboring beta-lactamase IMP-1 by broth dilution method; format: functional
Pseudomonas aeruginosa [22] = test: Antimicrobial activity against Pseudomonas aeruginosa by broth dilution method; format: functional
Enterobacter cloacae [23] = test: Antimicrobial activity against Enterobacter cloacae 908R harboring beta-lactamase AmpC by broth dilution method; format: functional
Providencia rettgeri [24] = test: Antimicrobial activity against Providencia rettgeri by broth dilution method; format: functional
Acinetobacter junii = test: Antimicrobial activity against Acinetobacter junii 15218 assessed as number of passages required for MIC to rise above 4 times original MIC; format: functional
Pseudomonas aeruginosa [25] = test: Antimicrobial activity against Pseudomonas aeruginosa BA assessed as number of passages required for MIC to rise above 4 times original MIC; format: functional
Acinetobacter baumannii [26] = test: Antimicrobial activity against Acinetobacter baumannii HPA74510 assessed as number of passages required for MIC to rise above 4 times original MIC; format: functional
Pseudomonas aeruginosa [27] = test: Antimicrobial activity against Pseudomonas aeruginosa BA by broth dilution method; format: functional
Escherichia coli [28] = test: Antimicrobial activity against Escherichia coli nmcA harboring beta-lactamase NMCA by broth dilution method; format: functional
Escherichia coli [29] = test: Antimicrobial activity against Escherichia coli CF102 harboring beta-lactamase TEM-3 by broth dilution method; format: functional
Klebsiella oxytoca [30] = test: Antimicrobial activity against Klebsiella oxytoca by broth dilution method; format: functional
Serratia marcescens [31] = test: Antimicrobial activity against Serratia marcescens by broth dilution method; format: functional
Pseudomonas aeruginosa [32] = test: Antimicrobial activity against Pseudomonas aeruginosa 1973E harboring beta-lactamase PSE-1 and class C enzymes by broth dilution method; format: functional
Pseudomonas aeruginosa [33] = test: Antimicrobial activity against oprD protein deficient Pseudomonas aeruginosa C2 by broth dilution method; format: functional
Serratia marcescens [34] = test: Antimicrobial activity against Serratia marcescens S6 harboring beta-lactamase SME-1.AmpC by broth dilution method; format: functional
Klebsiella pneumoniae [35] = test: Antimicrobial activity against Klebsiella pneumoniae by broth dilution method; format: functional
Proteus mirabilis = test: Antimicrobial activity against Proteus mirabilis by broth dilution method; format: functional
Escherichia coli [36] = test: Antimicrobial activity against Escherichia coli A harboring beta-lactamase CTX-M 15 by broth dilution method; format: functional
Enterobacter cloacae [37] = test: Antimicrobial activity against Enterobacter cloacae by broth dilution method; format: functional
Acinetobacter baumannii [38] = test: Antimicrobial activity against Acinetobacter baumannii HPA74510 harboring beta-lactamase IMP-4 by broth dilution method; format: functional
Pseudomonas aeruginosa [39] = test: Antimicrobial activity against mexAB-oprM protein and mexCD-oprJ deficient Pseudomonas aeruginosa PAO253 overexpressing MexEF-OprN gene by broth dilution method; format: functional
Klebsiella pneumoniae [40] = test: Antimicrobial activity against Klebsiella pneumoniae YC harboring beta-lactamase KPC-2,TEM-1and SHV-2 by broth dilution method; format: functional
Klebsiella oxytoca [41] = test: Antimicrobial activity against Klebsiella oxytoca 1028E harboring beta-lactamase K1 by broth dilution method; format: functional
Providencia rettgeri [42] = test: Antimicrobial activity against Providencia rettgeri J96 harboring beta-lactamase IMP-1 by broth dilution method; format: functional
Serratia marcescens [43] = test: Antimicrobial activity against Serratia marcescens 1T9 harboring beta-lactamase Class C by broth dilution method; format: functional
[44] = system: Stenotrophomonas maltophilia; test: Antimicrobial activity against Stenotrophomonas maltophilia 1AC736 assessed as number of passages required for MIC to rise above 4 times original MIC; format: functional
Acinetobacter baumannii [45] = test: Antimicrobial activity against Acinetobacter baumannii HPA I-16 harboring beta-lactamase OXA-27 by broth dilution method; format: functional
Pseudomonas aeruginosa [46] = test: Antimicrobial activity against mexAB-oprM protein and mexZ deficient Pseudomonas aeruginosa PAO267 by broth dilution method; format: functional
Pseudomonas aeruginosa [47] = test: Antimicrobial activity against mexAB-oprM, mexCD-oprJ, mexEF-oprN, mexJK, mexXY, opmH and pscC gene deficient Pseudomonas aeruginosa PAO750 by broth dilution method; format: functional
Pseudomonas aeruginosa [48] = test: Antimicrobial activity against Pseudomonas aeruginosa B4 by broth dilution method; format: functional
Escherichia coli [49] = test: Antimicrobial activity against Escherichia coli HB101 harboring beta-lactamase TEM-5 by broth dilution method; format: functional

SMILES: C[C@@H](O)[C@H]1C(=O)N2C(C(=O)O)=C(S[C@@H]3CN[C@H](C(=O)N(C)C)C3)[C@H](C)[C@H]12 [MEROPENEM]
- MBC (Enterobacter cloacae [1]): 0.25 µg/mL (≈ 0.652 µM)
- Activity (Pseudomonas aeruginosa [2]): 2 passages
- Activity (Acinetobacter baumannii [3]): inactive
- MIC (Escherichia coli [4]): 0.125 µg/mL (≈ 0.326 µM)
- Activity (Pseudomonas aeruginosa [5]): 1 frequency
- MIC (Klebsiella pneumoniae [6]): ≤ 0.06 µg/mL
- MIC50 (Proteus penneri): 0.125 µg/mL (≈ 0.326 µM)
- MIC90 (Proteus penneri): 0.5 µg/mL (≈ 1.3 µM)
- MIC (Pseudomonas aeruginosa [7]): 1 µg/mL (≈ 2.61 µM)
- Activity (Escherichia coli [8]): Active
- MIC (Pseudomonas aeruginosa [9]): > 32 µg/mL
- MIC50 (Acinetobacter sp.): 1 µg/mL (≈ 2.61 µM)
- MIC90 (Acinetobacter sp.): > 32 µg/mL
- MIC (Pseudomonas aeruginosa [10]): 1 µg/mL (≈ 2.61 µM)
- MIC (Klebsiella pneumoniae [11]): ≤ 0.06 µg/mL
- MIC (Pseudomonas aeruginosa [12]): 2 µg/mL (≈ 5.22 µM)
- MIC (Acinetobacter baumannii [13]): > 32 µg/mL
- MIC (Pseudomonas aeruginosa [14]): 32 µg/mL (≈ 83.4 µM)
- MIC (Pseudomonas aeruginosa [15]): 2 µg/mL (≈ 5.22 µM)
- Activity (Klebsiella pneumoniae [16]): inactive
- Activity (Pseudomonas aeruginosa [17]): 1 frequency
- MIC (Klebsiella pneumoniae [18]): > 32 µg/mL
- MIC50 (Escherichia coli [19]): ≤ 0.06 µg/mL
- MIC90 (Escherichia coli [19]): 0.5 µg/mL (≈ 1.3 µM)
- MIC (Pseudomonas aeruginosa [20]): 1 µg/mL (≈ 2.61 µM)
- MIC (Pseudomonas aeruginosa [21]): > 32 µg/mL
- MIC50 (Pseudomonas aeruginosa [22]): 4 µg/mL (≈ 10.4 µM)
- MIC90 (Pseudomonas aeruginosa [22]): > 32 µg/mL
- MIC (Enterobacter cloacae [23]): 0.125 µg/mL (≈ 0.326 µM)
- MIC50 (Providencia rettgeri [24]): 0.25 µg/mL (≈ 0.652 µM)
- MIC90 (Providencia rettgeri [24]): > 32 µg/mL
- Activity (Acinetobacter junii): 9 passages
- Activity (Pseudomonas aeruginosa [25]): 3 passages
- Activity (Acinetobacter baumannii [26]): inactive
- MIC (Pseudomonas aeruginosa [27]): 1 µg/mL (≈ 2.61 µM)
- MIC (Pseudomonas aeruginosa [27]; Pseudomonas aeruginosa, BA, read-out: MIC): 1 µg/mL (≈ 2.61 µM)
- MIC (Escherichia coli [28]): > 32 µg/mL
- MIC (Escherichia coli [29]): ≤ 0.06 µg/mL
- MIC50 (Klebsiella oxytoca [30]): ≤ 0.06 µg/mL
- MIC90 (Klebsiella oxytoca [30]): 1 µg/mL (≈ 2.61 µM)
- MIC50 (Serratia marcescens [31]): 0.125 µg/mL (≈ 0.326 µM)
- MIC90 (Serratia marcescens [31]): 4 µg/mL (≈ 10.4 µM)
- MIC (Pseudomonas aeruginosa [32]): 4 µg/mL (≈ 10.4 µM)
- MIC (Pseudomonas aeruginosa [33]): 1 µg/mL (≈ 2.61 µM)
- MIC (Serratia marcescens [34]): 32 µg/mL (≈ 83.4 µM)
- MIC50 (Klebsiella pneumoniae [35]): ≤ 0.06 µg/mL
- MIC90 (Klebsiella pneumoniae [35]): 16 µg/mL (≈ 41.7 µM)
- MIC50 (Proteus mirabilis): 0.125 µg/mL (≈ 0.326 µM)
- MIC90 (Proteus mirabilis): 0.5 µg/mL (≈ 1.3 µM)
- MIC (Escherichia coli [36]): 0.125 µg/mL (≈ 0.326 µM)
- MIC (Enterobacter cloacae [37]): ≤ 0.06 µg/mL
- MIC50 (Enterobacter cloacae [37]): ≤ 0.06 µg/mL
- MIC90 (Enterobacter cloacae [37]): 0.25 µg/mL (≈ 0.652 µM)
- MIC (Acinetobacter baumannii [38]): 32 µg/mL (≈ 83.4 µM)
- MIC (Pseudomonas aeruginosa [39]): 0.5 µg/mL (≈ 1.3 µM)
- MIC (Klebsiella pneumoniae [40]): > 32 µg/mL
- MIC (Klebsiella oxytoca [41]): 0.125 µg/mL (≈ 0.326 µM)
- MIC (Providencia rettgeri [42]): > 32 µg/mL
- MIC (Serratia marcescens [43]): 0.125 µg/mL (≈ 0.326 µM)
- Activity [44]: inactive
- MIC (Acinetobacter baumannii [45]): > 32 µg/mL
- MIC (Pseudomonas aeruginosa [46]): 0.125 µg/mL (≈ 0.326 µM)
- MIC (Pseudomonas aeruginosa [47]): 0.5 µg/mL (≈ 1.3 µM)
- MIC (Pseudomonas aeruginosa [48]): ≤ 0.06 µg/mL
- MIC (Escherichia coli [49]): ≤ 0.06 µg/mL
